# From ChEMBL document CHEMBL4373646, “Synthesis, ribosomal selectivity, and antibacterial activity of netilmicin 4'-derivatives” (Medchemcomm, 2019)
# Assays:
# [1] = Inhibition of human cytoplasmic ribosome Cyt 14 hybridized with Mycobacterium smegmatis ribosome assessed as inhibition of translation activity using Firefly luciferase mRNA reporter based luminescence analysis
# Escherichia coli [2] = experiment: Antibacterial activity against Escherichia coli clinical isolate AG001; type: functional
# Pseudomonas aeruginosa [3] = experiment: Antibacterial activity against Pseudomonas aeruginosa clinical isolate AG032; type: functional
# [4] = Inhibition of human mitochondrial ribosome Mit 13 A1555G mutant hybridized with Mycobacterium smegmatis ribosome assessed as inhibition of translation activity using Firefly luciferase mRNA reporter based luminescence analysis
# Staphylococcus aureus [5] = experiment: Antibacterial activity against methicillin-resistant Staphylococcus aureus clinical isolate AG039; type: functional
# [6] = test system: human cytoplasmic ribosome (Cyt 14 hybrid); experiment: Selectivity ratio of IC50 for inhibition of human cytoplasmic ribosome Cyt 14 hybridized with Mycobacterium smegmatis ribosomes to IC50 for inhibition of Mycobacterium smegmatis wild type ribosomes; type: toxicity; conditions: read-out: Ratio IC50
# [7] = test system: human mitochondrial ribosome A1555G mutant (Mit 13 A1555G hybrid); experiment: Selectivity ratio of IC50 for inhibition of human mitochondrial ribosome Mit 13 A1555G mutant hybridized with Mycobacterium smegmatis ribosomes to IC50 for inhibition of Mycobacterium smegmatis wild type ribosomes; type: toxicity; conditions: read-out: Ratio IC50
# Escherichia coli [8] = experiment: Antibacterial activity against Escherichia coli clinical isolate AG003; type: functional
# [9] = Inhibition of human mitochondrial ribosome Mit 13 hybridized with Mycobacterium smegmatis ribosome assessed as inhibition of translation activity using Firefly luciferase mRNA reporter based luminescence analysis
# Pseudomonas aeruginosa [10] = experiment: Antibacterial activity against Pseudomonas aeruginosa clinical isolate AG031; type: functional
# Staphylococcus aureus [11] = experiment: Antibacterial activity against methicillin-resistant Staphylococcus aureus clinical isolate AG042 harboring with ANT4',4\" gene; type: functional
# [12] = test system: human mitochondrial ribosome (Mit 13 hybrid); experiment: Selectivity ratio of IC50 for inhibition of human mitochondrial ribosome Mit 13 hybridized with Mycobacterium smegmatis ribosome to IC50 for inhibition of Mycobacterium smegmatis wild type ribosomes; type: toxicity; conditions: read-out: Ratio IC50
# Pseudomonas aeruginosa [13] = experiment: Antibacterial activity against Pseudomonas aeruginosa clinical isolate AG033; type: functional
# Staphylococcus aureus [14] = experiment: Antibacterial activity against methicillin-resistant Staphylococcus aureus clinical isolate AG038; type: functional
# Escherichia coli [15] = experiment: Antibacterial activity against Escherichia coli clinical isolate AG055; type: functional
# Bacterial 70S ribosome = experiment: Inhibition of Mycobacterium smegmatis wild type ribosomes assessed as inhibition of translation activity using Firefly luciferase mRNA reporter based luminescence analysis; type: subcellular, Mycolicibacterium smegmatis
SMILES,IC50 [1],MIC (Escherichia coli [2]),MIC (Pseudomonas aeruginosa [3]),IC50 [4],MIC (Staphylococcus aureus [5]),selectivity ratio [6],selectivity ratio [7],MIC (Escherichia coli [8]),IC50 [9],MIC (Pseudomonas aeruginosa [10]),MIC (Staphylococcus aureus [11]),selectivity ratio [12],MIC (Pseudomonas aeruginosa [13]),MIC (Staphylococcus aureus [14]),MIC (Escherichia coli [15]),IC50 (Bacterial 70S ribosome)
CCN[C@@H]1C[C@H](N)[C@@H](O[C@H]2OC(CN)=C(Br)C[C@H]2N)[C@H](O)[C@H]1O[C@H]1OC[C@](C)(O)[C@H](NC)[C@H]1O,146 µM,2 µg/mL,8 µg/mL,1.2 µM,8 to 16 µg/mL,1460,12,16 µg/mL,52 µM,8 µg/mL,64 µg/mL,520,64 µg/mL,4 µg/mL,1 to 2 µg/mL,0.1 µM
CCN[C@@H]1C[C@H](N)[C@@H](O[C@H]2OC(CN)=C(SCC)C[C@H]2N)[C@H](O)[C@H]1O[C@H]1OC[C@](C)(O)[C@H](NC)[C@H]1O,783 µM,16 µg/mL,128 µg/mL,46 µM,32 µg/mL,1160,69,8 to 16 µg/mL,256 µM,> 128 µg/mL,128 µg/mL,381,> 128 µg/mL,32 µg/mL,8 to 16 µg/mL,0.67 µM
CCN[C@@H]1C[C@H](N)[C@@H](O[C@H]2OC(CN)=C(c3ccccc3)C[C@H]2N)[C@H](O)[C@H]1O[C@H]1OC[C@](C)(O)[C@H](NC)[C@H]1O,81 µM,4 µg/mL,16 to 32 µg/mL,3.5 µM,16 µg/mL,299,13,64 µg/mL,29 µM,16 to 32 µg/mL,64 µg/mL,106,> 64 µg/mL,8 µg/mL,2 µg/mL,0.27 µM
CCS[C@H]1[C@H](O)[C@@H](N)[C@@H](O[C@H]2[C@H](O[C@@H]3O[C@H](CO)[C@@H](O[C@H]4O[C@@H](CN)[C@@H](O)[C@H](O)[C@H]4N)[C@H]3O)[C@@H](O)[C@H](N)C[C@@H]2N)O[C@@H]1CO,104 µM,,,76 µM,,1960,1430,,166 µM,,,3130,,,,0.053 µM
CCCCC1=C(CN)O[C@H](O[C@H]2[C@H](O)[C@@H](O[C@H]3OC[C@](C)(O)[C@H](NC)[C@H]3O)[C@H](NCC)C[C@@H]2N)[C@H](N)C1,940 µM,8 to 16 µg/mL,64 µg/mL,22 µM,16 µg/mL,1610,37,8 to 16 µg/mL,408 µM,64 µg/mL,64 µg/mL,699,> 128 µg/mL,16 µg/mL,5 µg/mL,0.58 µM
CCN[C@@H]1C[C@H](N)[C@@H](O[C@H]2OC(CN)=C(Cl)C[C@H]2N)[C@H](O)[C@H]1O[C@H]1OC[C@](C)(O)[C@H](NC)[C@H]1O,> 500 µM,4 µg/mL,64 µg/mL,1.5 µM,8 µg/mL,> 5000,15,16 to 32 µg/mL,58 µM,4 µg/mL,32 µg/mL,580,> 128 µg/mL,4 µg/mL,2 to 4 µg/mL,0.1 µM
CCC[C@H]1[C@H](O)[C@@H](N)[C@@H](O[C@H]2[C@H](O[C@@H]3O[C@H](CO)[C@@H](O[C@H]4O[C@@H](CN)[C@@H](O)[C@H](O)[C@H]4N)[C@H]3O)[C@@H](O)[C@H](N)C[C@@H]2N)O[C@@H]1CO,64 µM,,,52 µM,,2060,1680,,167 µM,,,5390,,,,0.031 µM
CCN[C@@H]1C[C@H](N)[C@@H](O[C@H]2OC(CN)=C(I)C[C@H]2N)[C@H](O)[C@H]1O[C@H]1OC[C@](C)(O)[C@H](NC)[C@H]1O,221 µM,2 µg/mL,4 to 8 µg/mL,1.5 µM,16 µg/mL,2210,15,16 µg/mL,49 µM,4 to 8 µg/mL,64 µg/mL,490,> 128 µg/mL,4 to 8 µg/mL,1 to 2 µg/mL,0.1 µM
CCN[C@@H]1C[C@H](N)[C@@H](O[C@H]2OC(CN)=CC[C@H]2N)[C@H](O)[C@H]1O[C@H]1OC[C@](C)(O)[C@H](NC)[C@H]1O [NETILMICIN],69 µM,2 µg/mL,2 µg/mL,0.7 µM,0.5 µg/mL,3450,35,8 µg/mL,28 µM,2 µg/mL,2 µg/mL,1400,> 128 µg/mL,0.5 µg/mL,2 µg/mL,0.02 µM
NC[C@@H]1O[C@H](O[C@H]2[C@@H](O)[C@H](O[C@@H]3[C@@H](O)[C@H](N)C[C@H](N)[C@H]3O[C@H]3O[C@H](CO)[C@@H](O)[C@H](O)[C@H]3N)O[C@@H]2CO)[C@H](N)[C@@H](O)[C@@H]1O [PAROMOMYCIN],31 µM,,,12 µM,,816,315,,142 µM,,,3740,,,,0.038 µM
